{"source": "patent US12077503B2", "about": "“Substituted cyclic amides and their use as herbicides” (FMC CORPORATION, priority 2015, dated 2024)", "format_in_all_cases": "in vivo", "key": {"[1]": {"tested_on": "Kochia (Kochia scoparia)", "assay": "Test A preemergence", "details": "Bassia scoparia, pre-emergence, 240 h", "how_it_was_run": "(§1)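 In a loam soil and sand blend, planted seeds got a preemergence directed soil spray, and young plants at the one- to two-leaf stage, 2–10 cm high, got a postemergence application; ~10 d greenhouse hold; injury rated visually, 0 = none, 100 = complete control.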"}, "[2]": {"tested_on": "barnyardgrass (Echinochloa crus-galli)", "assay": "Test A preemergence", "details": "Echinochloa crus-galli, pre-emergence, 240 h", "how_it_was_run": "as §1"}, "[3]": {"tested_on": "giant foxtail (Setaria faberii)", "assay": "Test A preemergence", "details": "Setaria faberi, pre-emergence, 240 h", "how_it_was_run": "as §1"}, "[4]": {"tested_on": "pigweed (Amaranthus retroflexus)", "assay": "Test A preemergence", "details": "Amaranthus retroflexus, pre-emergence, 240 h"}, "[5]": {"tested_on": "ragweed (common ragweed, Ambrosia elatior)", "assay": "Test A preemergence", "details": "Ambrosia artemisiifolia, pre-emergence, 240 h", "how_it_was_run": "as §1"}, "[6]": {"tested_on": "ryegrass, Italian (Italian ryegrass, Lolium multiflorum)", "assay": "Test A preemergence", "details": "Lolium multiflorum, pre-emergence, 240 h", "how_it_was_run": "as §1"}, "[7]": {"tested_on": "Galium (catchweed bedstraw, Galium aparine)", "assay": "Test A postemergence", "details": "Galium, post-emergence, 240 h, 125 g ai/ha, postemergence, visual injury rating after approximately 10 d; read-out: Galium plant response rating (0 to 100 scale, 0 no effect, 100 complete control)", "how_it_was_run": "as §1"}, "[8]": {"tested_on": "Kochia (Kochia scoparia)", "assay": "Test A postemergence", "details": "Bassia scoparia, post-emergence, 240 h, 125 g ai/ha, postemergence, visual injury rating after approximately 10 d; read-out: Kochia plant response rating (0 to 100 scale, 0 no effect, 100 complete control)", "how_it_was_run": "as §1"}, "[9]": {"tested_on": "barnyardgrass (Echinochloa crus-galli)", "assay": "Test A postemergence", "details": "Echinochloa crus-galli, post-emergence, 240 h, 125 g ai/ha, postemergence, visual injury rating after approximately 10 d; read-out: Barnyardgrass plant response rating (0 to 100 scale, 0 no effect, 100 complete control)", "how_it_was_run": "as §1"}, "[10]": {"tested_on": "blackgrass (Alopecurus myosuroides)", "assay": "Test A postemergence", "details": "Alopecurus myosuroides, post-emergence, 240 h, 125 g ai/ha, postemergence, visual injury rating after approximately 10 d; read-out: Blackgrass plant response rating (0 to 100 scale, 0 no effect, 100 complete control)", "how_it_was_run": "as §1"}, "[11]": {"tested_on": "corn (Zea mays)", "assay": "Test A postemergence", "details": "Zea mays, post-emergence, 240 h, 125 g ai/ha, postemergence, visual injury rating after approximately 10 d; read-out: Corn plant response rating (0 to 100 scale, 0 no effect, 100 complete control)", "how_it_was_run": "as §1"}, "[12]": {"tested_on": "giant foxtail (Setaria faberii)", "assay": "Test A postemergence", "details": "Setaria faberi, post-emergence, 240 h, 125 g ai/ha, postemergence, visual injury rating after approximately 10 d; read-out: Foxtail, Giant plant response rating (0 to 100 scale, 0 no effect, 100 complete control)", "how_it_was_run": "as §1"}, "[13]": {"tested_on": "pigweed (Amaranthus retroflexus)", "assay": "Test A postemergence", "details": "Amaranthus retroflexus, post-emergence, 240 h, 125 g ai/ha, postemergence, visual injury rating after approximately 10 d; read-out: Pigweed plant response rating (0 to 100 scale, 0 no effect, 100 complete control)", "how_it_was_run": "as §1"}, "[14]": {"tested_on": "ragweed (common ragweed, Ambrosia elatior)", "assay": "Test A postemergence", "details": "Ambrosia artemisiifolia, post-emergence, 240 h, 125 g ai/ha, postemergence, visual injury rating after approximately 10 d; read-out: Ragweed plant response rating (0 to 100 scale, 0 no effect, 100 complete control)", "how_it_was_run": "as §1"}, "[15]": {"tested_on": "ryegrass, Italian (Italian ryegrass, Lolium multiflorum)", "assay": "Test A postemergence", "details": "Lolium multiflorum, post-emergence, 240 h, 125 g ai/ha, postemergence, visual injury rating after approximately 10 d; read-out: Ryegrass, Italian plant response rating (0 to 100 scale, 0 no effect, 100 complete control)", "how_it_was_run": "as §1"}, "[16]": {"tested_on": "wheat (Triticum aestivum)", "assay": "Test A postemergence", "details": "Triticum aestivum, post-emergence, 240 h, 125 g ai/ha, postemergence, visual injury rating after approximately 10 d; read-out: Wheat plant response rating (0 to 100 scale, 0 no effect, 100 complete control)", "how_it_was_run": "as §1"}}, "data": [{"smiles": "Cc1c(F)cccc1NC(=O)[C@H]1C(=O)NC[C@@H]1c1cccc(C(F)(F)F)c1", "note": "[Compound 826]", "values": [{"measurement": "pest or weed control at 125 g/ha", "setting": "[1]; 125 g ai/ha, preemergence, 0 to 100 scale where 0 is no effect and 100 is complete control, read-out: Kochia plant response rating", "value": 70, "unit": "%"}, {"measurement": "pest or weed control at 500 g/ha", "setting": "[1]; 500 g ai/ha, Preemergence, visual injury vs untreated controls after approximately 10 d, read-out: Kochia plant response rating (0 to 100 scale where 0 is no effect and 100 is complete control)", "value": 90, "unit": "%"}, {"measurement": "pest or weed control at 125 g/ha", "setting": "[2]; 125 g ai/ha, preemergence, 0 to 100 scale where 0 is no effect and 100 is complete control, read-out: Barnyardgrass plant response rating", "value": 90, "unit": "%"}, {"measurement": "pest or weed control at 500 g/ha", "setting": "[2]; 500 g ai/ha, Preemergence, visual injury vs untreated controls after approximately 10 d, read-out: Barnyardgrass plant response rating (0 to 100 scale where 0 is no effect and 100 is complete control)", "value": 100, "unit": "%"}, {"measurement": "pest or weed control at 125 g/ha", "setting": "[3]; 125 g ai/ha, preemergence, 0 to 100 scale where 0 is no effect and 100 is complete control, read-out: Foxtail, Giant plant response rating", "value": 100, "unit": "%"}, {"measurement": "pest or weed control at 500 g/ha", "setting": "[3]; 500 g ai/ha, Preemergence, visual injury vs untreated controls after approximately 10 d, read-out: Foxtail, Giant plant response rating (0 to 100 scale where 0 is no effect and 100 is complete control)", "value": 100, "unit": "%"}, {"measurement": "pest or weed control at 125 g/ha", "setting": "[4]; 125 g ai/ha, preemergence, 0 to 100 scale where 0 is no effect and 100 is complete control, read-out: Pigweed plant response rating", "value": 0, "unit": "%"}, {"measurement": "pest or weed control at 500 g/ha", "setting": "[4]; 500 g ai/ha, Preemergence, visual injury vs untreated controls after approximately 10 d, read-out: Pigweed plant response rating (0 to 100 scale where 0 is no effect and 100 is complete control)", "value": 60, "unit": "%"}, {"measurement": "pest or weed control at 125 g/ha", "setting": "[5]; 125 g ai/ha, preemergence, 0 to 100 scale where 0 is no effect and 100 is complete control, read-out: Ragweed plant response rating", "value": 20, "unit": "%"}, {"measurement": "pest or weed control at 500 g/ha", "setting": "[5]; 500 g ai/ha, Preemergence, visual injury vs untreated controls after approximately 10 d, read-out: Ragweed plant response rating (0 to 100 scale where 0 is no effect and 100 is complete control)", "value": 80, "unit": "%"}, {"measurement": "pest or weed control at 125 g/ha", "setting": "[6]; 125 g ai/ha, preemergence, 0 to 100 scale where 0 is no effect and 100 is complete control, read-out: Ryegrass, Italian plant response rating", "value": 70, "unit": "%"}, {"measurement": "pest or weed control at 500 g/ha", "setting": "[6]; 500 g ai/ha, Preemergence, visual injury vs untreated controls after approximately 10 d, read-out: Ryegrass, Italian plant response rating (0 to 100 scale where 0 is no effect and 100 is complete control)", "value": 80, "unit": "%"}, {"measurement": "pest or weed control at 125 g/ha", "setting": "[7]", "value": 50, "unit": "%"}, {"measurement": "pest or weed control at 125 g/ha", "setting": "[8]", "value": 30, "unit": "%"}, {"measurement": "pest or weed control at 125 g/ha", "setting": "[9]", "value": 100, "unit": "%"}, {"measurement": "pest or weed control at 125 g/ha", "setting": "[10]", "value": 80, "unit": "%"}, {"measurement": "plant injury at 125 g/ha", "setting": "[11]", "value": 80, "unit": "%"}, {"measurement": "pest or weed control at 125 g/ha", "setting": "[12]", "value": 90, "unit": "%"}, {"measurement": "pest or weed control at 125 g/ha", "setting": "[13]", "value": 30, "unit": "%"}, {"measurement": "pest or weed control at 125 g/ha", "setting": "[14]", "value": 50, "unit": "%"}, {"measurement": "pest or weed control at 125 g/ha", "setting": "[15]", "value": 60, "unit": "%"}, {"measurement": "plant injury at 125 g/ha", "setting": "[16]", "value": 60, "unit": "%"}]}]}
